# Tests used:
# [1] = Cytotoxicity against mouse Neuro2a cells assessed as cell viability at 30 uM after 24 hrs; format: functional; conditions: N2a, read-out: Activity
# [2] = system: Mus musculus; test: Inhibition of COMT in NMRI mouse liver homogenates assessed as metanephrine formation at 3 mg/kg, po measured after 3 hrs relative to control; values are per cent of control
# [3] = system: Rattus norvegicus; test: Inhibition of COMT in Wistar rat liver homogenates assessed as metanephrine formation at 3 mg/kg, po measured after 3 hrs relative to control; values are per cent of control
# [4] = system: Mus musculus; test: Inhibition of COMT in NMRI mouse liver homogenates assessed as metanephrine formation at 30 mg/kg, po measured after 6 hrs relative to control; values are per cent of control
# [5] = target: T1, Catechol O-methyltransferase (Rattus norvegicus) (UniProt P22734); test: Inhibition of COMT in rat liver homogenates assessed as metanephrine formation at 30 uM relative to control; values are per cent of control
# T1 sequence (whole entry): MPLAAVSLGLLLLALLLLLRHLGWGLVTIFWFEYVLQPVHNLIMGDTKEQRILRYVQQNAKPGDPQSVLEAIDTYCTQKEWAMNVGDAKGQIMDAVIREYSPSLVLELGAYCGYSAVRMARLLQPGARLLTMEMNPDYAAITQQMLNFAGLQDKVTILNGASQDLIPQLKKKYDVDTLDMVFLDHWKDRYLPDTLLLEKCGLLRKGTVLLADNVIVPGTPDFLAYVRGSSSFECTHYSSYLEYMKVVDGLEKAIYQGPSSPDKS
# [6] = target: T1, Catechol O-methyltransferase (Rattus norvegicus); test: Inhibition of COMT in rat liver homogenates assessed as metanephrine formation at 3 uM relative to control; values are per cent of control
# [7] = system: Rattus norvegicus; test: Inhibition of COMT in Wistar rat brain homogenates assessed as metanephrine formation at 3 mg/kg, po measured after 3 hrs relative to control; values are per cent of control
structure (smiles),measurement,setting,value
Cc1nc(-c2noc(-c3cc(O)c(O)c([N+](=O)[O-])c3)n2)cs1,viability at 30 µM,[1],58.7%
same,"level, % of control at 3 mg/kg",[2],22.9%
CN1CCN(C(=O)c2ccc(-c3noc(-c4cc(O)c(O)c([N+](=O)[O-])c4)n3)cc2)CC1,viability at 30 µM,[1],90.7%
same,"level, % of control at 3 mg/kg",[2],74%
Cc1c(-c2noc(-c3cc(O)c(O)c([N+](=O)[O-])c3)n2)ccc(C(F)(F)F)[n+]1[O-],viability at 30 µM,[1],62.2%
same,"level, % of control at 3 mg/kg",[3],13.9%
Cc1ccc(-c2noc(-c3cc(O)c(O)c([N+](=O)[O-])c3)n2)c(Cl)[n+]1[O-],viability at 30 µM,[1],100%
same,"level, % of control at 3 mg/kg",[3],31.6%
O=[N+]([O-])c1cc(-c2ccnc(-c3ccccc3)n2)cc(O)c1O,"level, % of control at 30 mg/kg",[4],44.8%
Cc1nc(-c2cc(O)c(O)c([N+](=O)[O-])c2)c(-c2ccccc2)o1,"level, % of control at 30 mg/kg",[4],84.1%
O=[N+]([O-])c1cc(-c2nc(-c3c[n+]([O-])ccc3C(F)(F)F)no2)cc(O)c1O,viability at 30 µM,[1],93.4%
same,"level, % of control at 3 mg/kg",[3],23.6%
O=[N+]([O-])c1cc(-c2nc(N3CCN(c4ccccn4)CC3)no2)cc(O)c1O,viability at 30 µM,[1],24.6%
same,"level, % of control at 3 mg/kg",[2],32.2%
Cc1ccc(-c2noc(-c3cc(O)c(O)c([N+](=O)[O-])c3)n2)c(Br)[n+]1[O-],viability at 30 µM,[1],76.3%
same,"level, % of control at 3 mg/kg",[3],33.7%
Cc1ccc(-n2nccc2-c2ccc(O)c(O)c2)cc1,residual activity,[5],41.2%
N#Cc1ccc(-n2nccc2-c2cc(O)c(O)c([N+](=O)[O-])c2)cc1,residual activity,[6],0.3%
same,"level, % of control at 30 mg/kg",[4],61.1%
CC(=O)N1CCN(c2noc(-c3cc(O)c(O)c([N+](=O)[O-])c3)n2)CC1,viability at 30 µM,[1],104%
same,"level, % of control at 3 mg/kg",[2],68.2%
NC(=O)c1ccc(-c2noc(-c3cc(O)c(O)c([N+](=O)[O-])c3)n2)cc1,viability at 30 µM,[1],91.2%
same,"level, % of control at 3 mg/kg",[2],79.2%
Cc1c(C)c(C)[n+]([O-])c(Cl)c1-c1noc(-c2cc(O)c(O)c([N+](=O)[O-])c2)n1,viability at 30 µM,[1],95.1%
same,"level, % of control at 3 mg/kg",[3],7.9%
Nc1nc(-c2cc(O)c(O)c([N+](=O)[O-])c2)c(-c2ccccc2)s1,"level, % of control at 30 mg/kg",[4],77.4%
Cc1cc(C)[n+]([O-])c(Cl)c1-c1noc(-c2cc(O)c(O)c([N+](=O)[O-])c2)n1,viability at 30 µM,[1],92.3%
same,"level, % of control at 3 mg/kg",[3],13.9%
O=[N+]([O-])c1cc(-c2nc(-c3ccnc(F)c3)no2)cc(O)c1O,viability at 30 µM,[1],25%
O=[N+]([O-])c1cc(-c2nnc(-c3ccccc3)o2)cc(O)c1O,"level, % of control at 3 mg/kg",[7],87.9%
same,"level, % of control at 3 mg/kg",[3],67.8%
same,"level, % of control at 30 mg/kg",[4],47.3%
O=[N+]([O-])c1cc(-c2nc(N3CCOCC3)no2)cc(O)c1O,viability at 30 µM,[1],67.5%
same,"level, % of control at 3 mg/kg",[2],45.8%
O=[N+]([O-])c1cc(-c2nc(-c3ccc(Cl)c(Cl)c3)no2)cc(O)c1O,viability at 30 µM,[1],37.7%
same,"level, % of control at 3 mg/kg",[2],8.8%
Oc1ccc(-c2ccnn2-c2ccccc2)c(O)c1O,residual activity,[5],26.8%
O=[N+]([O-])c1cc(-c2ccnn2-c2cccc(Cl)c2)cc(O)c1O,residual activity,[6],0%
Cc1ccc(C(=O)n2ncc(-c3ccccc3)c2-c2cc(O)c(O)c([N+](=O)[O-])c2)cc1,residual activity,[6],2.8%
same,"level, % of control at 30 mg/kg",[4],89.3%
O=[N+]([O-])c1cc(-c2nc(-c3ccc[n+]([O-])c3C(F)(F)F)no2)cc(O)c1O,viability at 30 µM,[1],96.4%
same,"level, % of control at 3 mg/kg",[3],5.5%
O=[N+]([O-])c1cc(-c2nc(-c3ccc[n+]([O-])c3)no2)cc(O)c1O,viability at 30 µM,[1],93.8%
same,"level, % of control at 3 mg/kg",[3],77%
Cc1c(-c2noc(-c3cc(O)c(O)c([N+](=O)[O-])c3)n2)c(C(F)(F)F)cc(-c2ccccc2)[n+]1[O-],viability at 30 µM,[1],26.6%
same,"level, % of control at 3 mg/kg",[3],24.3%
Oc1cc(-c2ccnn2-c2ccccc2)cc(O)c1O,residual activity,[5],0.8%
O=C(O)c1cc(-c2ccnn2-c2cccc(Cl)c2)cc(O)c1O,residual activity,[5],24.1%
Cn1nccc1-c1cc(O)c(O)c([N+](=O)[O-])c1,residual activity,[6],1.1%
O=[N+]([O-])c1cc(-c2ccn[nH]2)cc(O)c1O,residual activity,[6],0%
Cc1ccc(-c2noc(-c3cc(O)c(O)c([N+](=O)[O-])c3)n2)c(N2CCOCC2)n1,viability at 30 µM,[1],43.8%
O=[N+]([O-])c1cc(-c2nc(-c3ccc[n+]([O-])c3Cl)no2)cc(O)c1O,viability at 30 µM,[1],93.7%
same,"level, % of control at 3 mg/kg",[3],71.6%
O=[N+]([O-])c1cc(-c2nc(-c3ccc(C(F)(F)F)[n+]([O-])c3)no2)cc(O)c1O,viability at 30 µM,[1],87%
same,"level, % of control at 3 mg/kg",[3],34.4%
O=[N+]([O-])c1cc(-c2nc(-c3ccncc3)no2)cc(O)c1O,viability at 30 µM,[1],27.3%
O=[N+]([O-])c1cc(-c2noc(-c3ccccc3)n2)cc(O)c1O,"level, % of control at 3 mg/kg",[7],55.6%
same,"level, % of control at 3 mg/kg",[3],51.9%
same,"level, % of control at 30 mg/kg",[4],24.4%
Oc1ccc(-c2ccnn2-c2ccc(C(F)(F)F)cc2)c(F)c1O,residual activity,[5],32.3%
O=[N+]([O-])c1cc(-c2nc(-c3ccc(Br)cc3)no2)cc(O)c1O,viability at 30 µM,[1],12.2%
same,"level, % of control at 3 mg/kg",[2],12.7%
O=[N+]([O-])c1cc(-c2nc(-c3cccs3)no2)cc(O)c1O,viability at 30 µM,[1],19.3%
same,"level, % of control at 3 mg/kg",[2],29.6%
O=[N+]([O-])c1cc(-c2nc(-c3ccc(F)cc3)no2)cc(O)c1O,viability at 30 µM,[1],29.5%
same,"level, % of control at 3 mg/kg",[2],12.7%
Cc1ccc(-n2nccc2-c2cc(O)c(O)c([N+](=O)[O-])c2)cc1,residual activity,[6],0%
Cc1[nH]nc(-c2ccc(O)c(O)c2O)c1-c1ccc(Cl)cc1,residual activity,[6],15.6%
O=[N+]([O-])c1cc(-c2nc(-c3ccccc3)no2)cc(O)c1O,viability at 30 µM,[1],43.1%
same,"level, % of control at 3 mg/kg",[7],71.7%
same,"level, % of control at 3 mg/kg",[3],20.6%
same,"level, % of control at 3 mg/kg",[2],20.6%
same,"level, % of control at 30 mg/kg",[4],7%
O=[N+]([O-])c1cc(-c2nc(-c3cnccn3)no2)cc(O)c1O,viability at 30 µM,[1],60.5%
Cc1cc(-c2noc(-c3cc(O)c(O)c([N+](=O)[O-])c3)n2)on1,viability at 30 µM,[1],27.6%
O=[N+]([O-])c1cc(-c2nc(-c3ccccn3)no2)cc(O)c1O,viability at 30 µM,[1],70.5%
Cc1ccc(-c2noc(-c3cc(O)c(O)c([N+](=O)[O-])c3)n2)c(Cl)n1,viability at 30 µM,[1],53.1%
O=[N+]([O-])c1cc(-c2cncn2-c2ccccc2)cc(O)c1O,"level, % of control at 30 mg/kg",[4],109%
Cc1cc(C(F)(F)F)c(-c2noc(-c3cc(O)c(O)c([N+](=O)[O-])c3)n2)c(C)[n+]1[O-],viability at 30 µM,[1],37.2%
same,"level, % of control at 3 mg/kg",[3],1.3%
O=[N+]([O-])c1cc(-c2nc(-c3cnccc3C(F)(F)F)no2)cc(O)c1O,viability at 30 µM,[1],14.7%
O=[N+]([O-])c1cc(-c2nc(-c3cccnc3)no2)cc(O)c1O,viability at 30 µM,[1],26.7%
CN1CCN(c2noc(-c3cc(O)c(O)c([N+](=O)[O-])c3)n2)CC1,viability at 30 µM,[1],90.2%
same,"level, % of control at 3 mg/kg",[2],56.8%
O=C(Cc1ccccc1)c1cc(O)c(O)c([N+](=O)[O-])c1 [NEBICAPONE],"level, % of control at 30 mg/kg",[4],85.7%
O=[N+]([O-])c1cc(-c2c(-c3ccccc3)cnn2-c2cccc(Cl)c2)cc(O)c1O,residual activity,[6],68.6%
O=[N+]([O-])c1cc(-c2ccnn2-c2ccccc2)cc(O)c1O,residual activity,[6],0%
same,"level, % of control at 30 mg/kg",[4],60.8%

# Source: ChEMBL document CHEMBL1156193, “Discovery of a long-acting, peripherally selective inhibitor of catechol-O-methyltransferase” (2010)
